The source of these data is US20250215029A1 (Recludix Pharma, Inc., priority 2022, published 2025).

Test [1] has as its target T1, Recombinant STAT3 protein (STAT3 (G127-I722)) (Homo sapiens, UniProt P40763).
T1 construct: Recombinant STAT3 protein (STAT3 (G127-I722))
Put plainly: STAT3 Fluorescence Polarization (FP) Assay. Format: binding. The settings on record: STAT3 (G127-I722) 25 nM, probe 5-FAM-GpYLPQTV-NH2 2 nM, 45-minute incubation; read-out: STAT3 (FP assay IC50 class). In outline: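 Displacement of a 2 nM 5-FAM-labelled pY peptide (GpYLPQTV) from 25 nM recombinant STAT3 (G127-I722) was monitored by fluorescence polarization. Incubation lasted 45 min at room temperature in pH 7.4 HEPES buffer containing 1% DMSO.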

Test [2] deals with T2, Recombinant STAT6 protein (STAT6 (W123-T658)) (Homo sapiens, UniProt P42226).
T2 construct: Recombinant STAT6 protein (STAT6 (W123-T658))
T2 sequence (P42226 123-658): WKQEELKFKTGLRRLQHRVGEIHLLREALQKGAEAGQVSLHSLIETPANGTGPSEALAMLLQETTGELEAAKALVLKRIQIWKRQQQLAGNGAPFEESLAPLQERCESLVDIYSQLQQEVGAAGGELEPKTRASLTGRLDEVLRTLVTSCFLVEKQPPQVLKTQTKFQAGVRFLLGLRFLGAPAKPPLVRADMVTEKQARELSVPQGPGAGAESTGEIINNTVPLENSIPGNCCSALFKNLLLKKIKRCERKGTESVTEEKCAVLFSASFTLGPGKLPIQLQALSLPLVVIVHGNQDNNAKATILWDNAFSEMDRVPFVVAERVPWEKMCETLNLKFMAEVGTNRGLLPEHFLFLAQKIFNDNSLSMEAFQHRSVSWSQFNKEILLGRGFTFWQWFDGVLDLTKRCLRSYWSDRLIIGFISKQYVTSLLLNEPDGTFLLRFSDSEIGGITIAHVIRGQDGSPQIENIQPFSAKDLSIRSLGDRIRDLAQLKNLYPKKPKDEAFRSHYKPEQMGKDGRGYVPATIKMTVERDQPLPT
Put plainly: STAT6 Fluorescence Polarization (FP) Assay. Format: binding. Conditions: STAT6 (W123-T658) 250 nM, probe 5-FAM-Ap[…]-NH2 2 nM, 45-minute incubation; read-out: STAT6 (FP assay IC50 class). In outline:
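Fluorescence polarization (mP) read-out: 250 nM STAT6 (W123-T658) plus 2 nM 5-FAM phosphotyrosine peptide, 45 min, room temperature, 1% DMSO. IC50 by nonlinear fit of mP against log compound concentration.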
Background: In fluorescence polarisation assays a small probe gives low polarisation when free and higher when bound to something large.

T1 sequence (P40763 127-722): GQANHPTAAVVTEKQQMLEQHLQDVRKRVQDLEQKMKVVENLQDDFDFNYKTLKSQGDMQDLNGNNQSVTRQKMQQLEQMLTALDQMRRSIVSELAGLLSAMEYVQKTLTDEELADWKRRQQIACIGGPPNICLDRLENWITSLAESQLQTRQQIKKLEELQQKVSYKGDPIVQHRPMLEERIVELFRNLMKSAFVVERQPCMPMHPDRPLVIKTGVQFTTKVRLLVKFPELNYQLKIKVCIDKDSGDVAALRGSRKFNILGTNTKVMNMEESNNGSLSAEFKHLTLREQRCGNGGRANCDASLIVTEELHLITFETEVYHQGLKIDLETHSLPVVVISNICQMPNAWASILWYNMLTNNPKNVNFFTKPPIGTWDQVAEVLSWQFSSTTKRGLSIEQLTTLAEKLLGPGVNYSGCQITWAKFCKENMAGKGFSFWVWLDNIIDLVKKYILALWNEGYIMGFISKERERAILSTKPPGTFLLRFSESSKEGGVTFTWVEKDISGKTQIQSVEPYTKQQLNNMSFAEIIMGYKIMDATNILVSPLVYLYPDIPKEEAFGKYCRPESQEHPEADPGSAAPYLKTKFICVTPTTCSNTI

By IC50 is commonly meant the concentration that gives 50% inhibition. `CCC[C@H]1CC[C@H](NC(=O)c2cc3cc(C(F)P(=O)(O)O)ccc3s2)C(=O)N2[C@H](CC[C@H]2C(=O)N2CC(c3cnccc3OC)C2)C1` (stereo partly drawn) [Compound 247, (fluoro(2-(((3S,6S,9S,10aR)-3-(3-(4-methoxypyridin-3-yl)azetidine-1-carbonyl)-5-oxo-9-propyldecahydropyrrolo[1,2-a]azocin-6-yl)carbamoyl)benzo[b]thiophen-5-yl)methyl)phosphonic acid]: the results for the IC50 in test [1] and in test [2] were < 0.1 µM and 3 to 30 µM, respectively.
Turning to `CC(O)C1(c2ccccc2)CN(C(=O)[C@@H]2CC[C@@H]3CCCC[C@H](NC(=O)c4cc5cc(C(F)(F)P(=O)(O)O)ccc5s4)C(=O)N32)C1` (stereo partly drawn) [Compound 495, (difluoro(2-(((3S,6S,10aS)-3-(3-(1-hydroxyethyl)-3-phenylazetidine-1-carbonyl)-5-oxodecahydropyrrolo[1,2-a]azocin-6-yl)carbamoyl)benzo[b]thiophen-5-yl)methyl)phosphonic acid], the figures for the IC50 in test [1] and in test [2] were 0.1 to 1 µM and 3 to 30 µM, respectively.
For `Cc1cc(C#N)cnc1C1CN(C(=O)[C@@H]2CC[C@@H]3CCCC[C@H](NC(=O)c4cc5cc(C(F)(F)P(=O)(O)O)ccc5s4)C(=O)N32)C1` [Compound 496, ((2-(((3S,6S,10aS)-3-(3-(5-cyano-3-methylpyridin-2-yl)azetidine-1-carbonyl)-5-oxodecahydropyrrolo[1,2-a]azocin-6-yl)carbamoyl)benzo[b]thiophen-5-yl)difluoromethyl)phosphonic acid] the same measures were < 0.1 µM and 0.3 to 3 µM.
Taken in the same sequence, the figures for `O=C(N[C@H]1CCCC[C@H]2CC[C@@H](C(=O)N3CC(c4nc5ccccc5o4)C3)N2C1=O)c1cc2cc(C(F)(F)P(=O)(O)O)ccc2s1` [Compound 497, ((2-(((3S,6S,10aS)-3-(3-(benzo[d]oxazol-2-yl)azetidine-1-carbonyl)-5-oxodecahydropyrrolo[1,2-a]azocin-6-yl)carbamoyl)benzo[b]thiophen-5-yl)difluoromethyl)phosphonic acid] were 0.1 to 1 µM and 0.3 to 3 µM.
For `COC1(c2cccnc2)CN(C(=O)[C@@H]2CC[C@@H]3CCC[C@H](NC(=O)c4cc5cc(C(F)(F)P(=O)(O)O)ccc5s4)C(=O)N32)C1` [Compound 498, (difluoro(2-(((3S,6S,9aS)-3-(3-methoxy-3-(pyridin-3-yl)azetidine-1-carbonyl)-5-oxooctahydro-1H-pyrrolo[1,2-a]azepin-6-yl)carbamoyl)benzo[b]thiophen-5-yl)methyl)phosphonic acid] the same measures were < 0.1 µM and 0.3 to 3 µM.
For the molecule `Cc1ccncc1C1CN(C(=O)[C@@H]2CC[C@@H]3CCCC[C@H](NC(=O)c4cc5cc(C(F)(F)P(=O)(O)O)ccc5s4)C(=O)N32)C1` [Compound 499, (difluoro(2-(((3S,6S,10aS)-3-(3-(4-methylpyridin-3-yl)azetidine-1-carbonyl)-5-oxodecahydropyrrolo[1,2-a]azocin-6-yl)carbamoyl)benzo[b]thiophen-5-yl)methyl)phosphonic acid], the figures for the IC50 in test [1] and in test [2] were < 0.1 µM and 0.3 to 3 µM, respectively.
Taken in the same sequence, the figures for `Cc1ccncc1C1CN(C(=O)[C@@H]2CC[C@@H]3CC(C)C[C@H](NC(=O)c4cc5cc(CP(=O)(O)O)ccc5s4)C(=O)N32)C1` (stereo partly drawn) [Compound 500, ((2-(((3S,6S,9aR)-8-methyl-3-(3-(4-methylpyridin-3-yl)azetidine-1-carbonyl)-5-oxooctahydro-1H-pyrrolo[1,2-a]azepin-6-yl)carbamoyl)benzo[b]thiophen-5-yl)methyl)phosphonic acid] were 0.1 to 1 µM and 3 to 30 µM.
Taken in the same sequence, the figures for `COC1(c2cnccc2C)CN(C(=O)[C@@H]2CC[C@@H]3CCCC[C@H](NC(=O)c4cc5cc(C(F)(F)P(=O)(O)O)ccc5s4)C(=O)N32)C1` [Compound 501, (difluoro(2-(((3S,6S,10aS)-3-(3-methoxy-3-(4-methylpyridin-3-yl)azetidine-1-carbonyl)-5-oxodecahydropyrrolo[1,2-a]azocin-6-yl)carbamoyl)benzo[b]thiophen-5-yl)methyl)phosphonic acid] were 0.1 to 1 µM and 3 to 30 µM.
For `COc1ccncc1C1CN(C(=O)[C@@H]2CC[C@@H]3CCC[C@H](NC(=O)c4cc5cc(CP(=O)(O)O)ccc5s4)C(=O)N32)C1` [Compound 502, ((2-(((3S,6S,9aS)-3-(3-(4-methoxypyridin-3-yl)azetidine-1-carbonyl)-5-oxooctahydro-1H-pyrrolo[1,2-a]azepin-6-yl)carbamoyl)benzo[b]thiophen-5-yl)methyl)phosphonic acid] the same measures were 0.1 to 1 µM and 3 to 30 µM.
Turning to `CCc1ccncc1C1CN(C(=O)[C@@H]2CC[C@@H]3CCC[C@H](NC(=O)c4cc5cc(CP(=O)(O)O)ccc5s4)C(=O)N32)C1` [Compound 503, ((2-(((3S,6S,9aS)-3-(3-(4-ethylpyridin-3-yl)azetidine-1-carbonyl)-5-oxooctahydro-1H-pyrrolo[1,2-a]azepin-6-yl)carbamoyl)benzo[b]thiophen-5-yl)methyl)phosphonic acid], the IC50 in test [1] is 0.1 to 1 µM; in test [2], 3 to 30 µM.
Regarding `Cc1c(F)cncc1C1CN(C(=O)[C@@H]2CC[C@@H]3CCC[C@H](NC(=O)c4cc5cc(CP(=O)(O)O)ccc5s4)C(=O)N32)C1` [Compound 504, ((2-(((3S,6S,9aS)-3-(3-(5-fluoro-4-methylpyridin-3-yl)azetidine-1-carbonyl)-5-oxooctahydro-1H-pyrrolo[1,2-a]azepin-6-yl)carbamoyl)benzo[b]thiophen-5-yl)methyl)phosphonic acid], the IC50 in test [1] is 1 to 10 µM; in test [2], 3 to 30 µM.
For `Cc1ccnc(F)c1C1CN(C(=O)[C@@H]2CC[C@@H]3CCC[C@H](NC(=O)c4cc5cc(CP(=O)(O)O)ccc5s4)C(=O)N32)C1` [Compound 505, ((2-(((3S,6S,9aS)-3-(3-(2-fluoro-4-methylpyridin-3-yl)azetidine-1-carbonyl)-5-oxooctahydro-1H-pyrrolo[1,2-a]azepin-6-yl)carbamoyl)benzo[b]thiophen-5-yl)methyl)phosphonic acid] the same measures were 1 to 10 µM and 3 to 30 µM.
For the molecule `COc1cncc(C2CN(C(=O)[C@@H]3CC[C@@H]4CCC[C@H](NC(=O)c5cc6cc(CP(=O)(O)O)ccc6s5)C(=O)N43)C2)c1C` [Compound 506, ((2-(((3S,6S,9aS)-3-(3-(5-methoxy-4-methylpyridin-3-yl)azetidine-1-carbonyl)-5-oxooctahydro-1H-pyrrolo[1,2-a]azepin-6-yl)carbamoyl)benzo[b]thiophen-5-yl)methyl)phosphonic acid], the IC50 was 1 to 10 µM in test [1] and 3 to 30 µM in test [2].
Turning to `Cc1cc(N(C)C)ncc1C1CN(C(=O)[C@@H]2CC[C@@H]3CCC[C@H](NC(=O)c4cc5cc(CP(=O)(O)O)ccc5s4)C(=O)N32)C1` [Compound 507, ((2-(((3S,6S,9aS)-3-(3-(6-(dimethylamino)-4-methylpyridin-3-yl)azetidine-1-carbonyl)-5-oxooctahydro-1H-pyrrolo[1,2-a]azepin-6-yl)carbamoyl)benzo[b]thiophen-5-yl)methyl)phosphonic acid], the values for the IC50 in test [1] and in test [2] were 1 to 10 µM and 3 to 30 µM, respectively.
Take `O=C(N[C@H]1CCC[C@H]2CC[C@@H](C(=O)N3CCC(c4cccnc4)C3)N2C1=O)c1cc2cc(CP(=O)(O)O)ccc2s1` (stereo partly drawn) [Compound 508, ((2-(((3S,6S,9aS)-5-oxo-3-(3-(pyridin-3-yl)pyrrolidine-1-carbonyl)octahydro-1H-pyrrolo[1,2-a]azepin-6-yl)carbamoyl)benzo[b]thiophen-5-yl)methyl)phosphonic acid]: the results for the IC50 in test [1] and in test [2] were 1 to 10 µM and 3 to 30 µM, respectively.
For `O=C(N[C@H]1CCCC[C@H]2CC[C@@H](C(=O)N3CCC(c4cccnc4)C3)N2C1=O)c1cc2cc(CP(=O)(O)O)ccc2s1` (stereo partly drawn) [Compound 509, ((2-(((3S,6S,10aS)-5-oxo-3-(3-(pyridin-3-yl)pyrrolidine-1-carbonyl)decahydropyrrolo[1,2-a]azocin-6-yl)carbamoyl)benzo[b]thiophen-5-yl)methyl)phosphonic acid] the same measures were 1 to 10 µM and 3 to 30 µM.
Consider `Cc1c(C#N)cncc1C1CN(C(=O)[C@@H]2CC[C@@H]3CCC[C@H](NC(=O)c4cc5cc(CP(=O)(O)O)ccc5s4)C(=O)N32)C1` [Compound 510, ((2-(((3S,6S,9aS)-3-(3-(5-cyano-4-methylpyridin-3-yl)azetidine-1-carbonyl)-5-oxooctahydro-1H-pyrrolo[1,2-a]azepin-6-yl)carbamoyl)benzo[b]thiophen-5-yl)methyl)phosphonic acid], for which the figures for the IC50 in test [1] and in test [2] were 1 to 10 µM and 3 to 30 µM, respectively.
